Literature values, collected in US6288033A, “Treatment of hepatitis B infection with thymosin alpha 1 in combination with lamivudine or in combination with lamivudine and famciclovir” (priority 1998, dated 2001).
Where two headings read alike, the source gives them in different places. No end group written: not given here.

Tests used:
[1] = not given; remark: listed apart in the source
[2] = tested on: duck hepatitis B viral replication; settings: for HBV DNA and DNA polymerase levels: within two days of start, maintained during 21 days; for time viral replication remained suppressed after dosing had stopped: then levels returned to pre-treatment
HBV [3] = settings: 10 day course, 250 mg or 500 mg tid
HBV [4] = tested on: HBV
[5] = tested on: HBV transfected cell lines
HBV [6] = settings: duck model
HBV [7] = settings: chronically infected chimpanzees
[8] = up to 2 years, HIV-infected patients
HBV [9] = settings: 1 microgram/ml
anti-HBs = settings: previously non-reactive hemodialysis patients, after Heptavax-B vaccination
[10] = tested on: woodchuck hepatitis virus (WHV)
HBV [11] = tested on: HBV; remark: listed apart in the source
HBV [12] = tested on: HBV; remark: listed apart in the source
[13] = North America and European patients

In the case of `CC(=O)OCC(CCn1cnc2cnc(N)nc21)COC(C)=O` [famciclovir, diacetyl ester of 6-deoxypenciclovir], the “penciclovir concentration in the blood, Cmax” value (after a 500 mg oral famciclovir dose) is listed as 21.73 microgram/ml, the “drug-related adverse effects on clinical laboratory values, blood pressure, heart rates or ECG” value (single and repeat doses up to 1000 mg three times daily for six days) is listed as “no evidence of drug-related adverse effects” and the absorption (volunteers, oral) is listed as “well absorbed”. For the same molecule, the “frequency of adverse experiences and laboratory abnormalities versus placebo” value ([1]; 11 double-blind and 2 open trials, more than 3000 patients) was “similar”, the “most common adverse experiences” value ([1]; human, in vivo) was “headache, nausea and diarrhea” and the “HBV DNA and DNA polymerase levels” value ([2]; oral 5 and 25 mg/kg twice a day) was “undetectable levels”. The “time viral replication remained suppressed after dosing had stopped” value [2] was “at least two days”, the “evaluable patients with a greater than 90% fall in HBV DNA levels” value (HBV [3]) was 6 of 11 and the tolerability (HBV [4]; adverse events profile similar to placebo) was “well tolerated”. The “HBV DNA and ALT levels” value (HBV [4]; up to 500 mg three times a day for 16 weeks, preliminary data) was “significant reduction”.

In the case of `Nc1ccn([C@@H]2CS[C@H](CO)O2)c(=O)n1` [lamivudine, 2'3'-dideoxy-3'thiacytidine], the antiviral activity [5] is given as “has been shown”, the antiviral activity (HBV [6]) is given as “has been shown” and the antiviral activity (HBV [7]) is given as “has been shown”. The toxicity [8] was “without significant toxicity”.

For `Nc1nc2c(ncn2CCC(CO)CO)c(=O)[nH]1` [penciclovir], the “penciclovir concentration in the blood, Cmax” value (after a 5 mg/kg oral dose of penciclovir alone) is given as “approximately 0.14 microgram/ml”, the “reduction in HBV DNA” value (HBV [9]; day 6) is given as 50% and the “reduction in HBV DNA” value (HBV [9]; day 9) is given as 90%. The “HBV DNA and DNA polymerase levels” value ([2]; oral 20 and 100 mg/kg twice a day) was “undetectable levels” and the “time viral replication remained suppressed after dosing had stopped” value [2] was “at least two days”.

In the case of “Thymosin alpha 1 (Ac-SDAAVDTSSEITTKDLKEKKEVVEEAEN; UniProt P06454 2-29, looked up) [Tα1]”, the “in vivo production of anti-HBs” value (anti-HBs) is listed as “enhance”, the “treated animals with undetectable WHV DNA levels” value ([10]; 10 μg/Kg s.c. twice weekly, 28 weeks, 6 treated animals, end of treatment) is listed as 4 animals and the “decrease in liver levels of WHV DNA replication intermediates” value ([10]; liver biopsy, the 4 animals with undetectable serum WHV DNA) is listed as 50 to 300 fold. The “change in liver levels of WHV DNA replication intermediates” value ([10]; liver biopsy, the other 2 animals) was “only a small change from the pretreatment levels”, the “depression of WHV DNA levels” value ([10]; remaining 2 treated animals, end of treatment) was 100 fold and the “CR (complete response), number of patients” value (HBV [11]; 1.6 mg S.C. 2×/week, 6 months, n=49) was 7 patients. The “CR (%)” value (HBV [11]; 1.6 mg S.C. 2×/week, 6 months, n=49, p 0.084) was 14%, the “patients with sustained loss of HBV DNA with negative HBeAg, number” value (HBV [11]; during the 1yr study or post study follow up) was 12 patients and the “patients with sustained loss of HBV DNA with negative HBeAg” value (HBV [11]; during the 1yr study or post study follow up, p<0.11 vs placebo) was 25%. The “DR (%)” value (HBV [11]; n=49) was 10%, the “DR (delayed response), number of patients” value (HBV [11]; n=49) was 5 patients and the “IR (%)” value (HBV [11]; n=49) was 0%. The “IR (incomplete response), number of patients” value (HBV [11]; n=49) was 0 patients, the serum aminotransferase levels (HBV [12]; conclusion of the study (1 year), 12 patients received TF5 or Tα1 twice weekly for six months) was “improved significantly” and the “peripheral blood lymphocyte, CD3 and CD4 counts, in vitro production of interferon-gamma over initial values” (HBV [12]; in responders to therapy) was “significant improvements”. The side effects (HBV [12]; in vivo) was “No side effects were observed”, the “patients who cleared serum HBV DNA, number” value (HBV [12]; of 12 treated patients, 1 year) was “Nine” and the “patients who cleared serum HBV DNA” value (HBV [12]; of 12 treated patients, 1 year, p<0.004 vs placebo) was 75%. For the same molecule, the “responders with sustained remission (normal ALT, negative serum HBV DNA by PCR and HBeAg)” value (HBV [12]; of the responders) was “About 78%” and the “safety and efficacy in clearing HBV DNA” value (HBV [12]; phase II studies, 1.45 to 1.75 mg (adults) per twice-weekly injection) was “safe and effective in clearing HBV DNA from the blood”.

In the case of interferon-alpha, the “of the HBeAg-clearing patients, clear HBsAg” value (hepatitis B virus (HBV); Asian patients) is listed as “approximately 10%”, the “patients who clear HBeAg” value (hepatitis B virus (HBV); Asian patients) is listed as 15-20% and the “of the HBeAg-clearing patients, ultimately cleared HBsAg” value (hepatitis B virus (HBV); [13]) is listed as 25-65%. The “sustained clearance of hepatitis B e antigen (HBeAg), patients” value (hepatitis B virus (HBV); [13]) was 30-40%.
